Reference: ChEMBL document CHEMBL5244230, “Artemisinin-derived hybrids and their anticancer activity” (Eur J Med Chem, 2020)

What follows are molecules tested on MDA-MB-231 (assay: Antiproliferative activity against human MDA-MB-231 cells assessed as reduction in cell viability measured for 72 hrs by MTT assay). Details: MDA-MB-231, 72 h.
Format: functional, cell-based
Molecule C[C@H]1[C@H](NC(=O)COCc2ccc(C(=O)/C=C/c3ccc(S(C)(=O)=O)cc3)cc2)O[C@@H]2O[C@@]3(C)CC[C@H]4[C@H](C)CC[C@@H]1[C@@]24OO3 has an IC50 of 100 nM. With C[C@H]1[C@@H](NC(=O)COCc2ccc(/C=C/C(=O)c3ccc(F)cc3)cc2)O[C@@H]2O[C@@]3(C)CC[C@H]4[C@H](C)CC[C@@H]1[C@@]24OO3 the IC50 was 1700 nM. C[C@H]1[C@@H](NC(=O)COCc2ccc(C(=O)/C=C/c3ccccc3F)cc2)O[C@@H]2O[C@@]3(C)CC[C@H]4[C@H](C)CC[C@@H]1[C@@]24OO3 showed an IC50 of 90 nM. C[C@H]1[C@@H](NC(=O)COCc2ccc(C(=O)/C=C/c3cccc(Cl)c3Cl)cc2)O[C@@H]2O[C@@]3(C)CC[C@H]4[C@H](C)CC[C@@H]1[C@@]24OO3 was tested, and the IC50 was 90 nM. In the case of C[C@H]1[C@@H](NC(=O)COCc2ccc(C(=O)/C=C/c3ccc(F)cc3F)cc2)O[C@@H]2O[C@@]3(C)CC[C@H]4[C@H](C)CC[C@@H]1[C@@]24OO3, the IC50 is reported as 90 nM. C[C@H]1[C@@H](NC(=O)COCc2ccc(C(=O)/C=C/c3ccc(F)cc3)cc2)O[C@@H]2O[C@@]3(C)CC[C@H]4[C@H](C)CC[C@@H]1[C@@]24OO3 was tested, and the IC50 was 90 nM. C[C@H]1[C@H](NC(=O)COCc2ccc(C(=O)/C=C/c3cccc(OC(F)(F)F)c3)cc2)O[C@@H]2O[C@@]3(C)CC[C@H]4[C@H](C)CC[C@@H]1[C@@]24OO3 was tested, and the IC50 was 100 nM. C[C@H]1[C@@H](NC(=O)COCc2ccc(C(=O)/C=C/c3ccc(F)c(F)c3)cc2)O[C@@H]2O[C@@]3(C)CC[C@H]4[C@H](C)CC[C@@H]1[C@@]24OO3 was tested, and the IC50 was 90 nM.

Each molecule was assayed on A549 (assay: Antiproliferative activity against human A549 cells assessed as reduction in cell viability measured for 72 hrs by MTT assay). Details: A549, 72 h.
Format: functional, cell-based
C[C@H]1[C@H](NC(=O)COCc2ccc(C(=O)/C=C/c3ccc(S(C)(=O)=O)cc3)cc2)O[C@@H]2O[C@@]3(C)CC[C@H]4[C@H](C)CC[C@@H]1[C@@]24OO3 showed an IC50 of 100 nM. With C[C@H]1[C@@H](NC(=O)COCc2ccc(/C=C/C(=O)c3ccc(F)cc3)cc2)O[C@@H]2O[C@@]3(C)CC[C@H]4[C@H](C)CC[C@@H]1[C@@]24OO3 the IC50 was 1700 nM. With C[C@H]1[C@@H](NC(=O)COCc2ccc(C(=O)/C=C/c3ccccc3F)cc2)O[C@@H]2O[C@@]3(C)CC[C@H]4[C@H](C)CC[C@@H]1[C@@]24OO3 the IC50 was 90 nM. With C[C@H]1[C@@H](NC(=O)COCc2ccc(C(=O)/C=C/c3cccc(Cl)c3Cl)cc2)O[C@@H]2O[C@@]3(C)CC[C@H]4[C@H](C)CC[C@@H]1[C@@]24OO3 the IC50 was 90 nM. In the case of C[C@H]1[C@@H](NC(=O)COCc2ccc(C(=O)/C=C/c3ccc(F)cc3F)cc2)O[C@@H]2O[C@@]3(C)CC[C@H]4[C@H](C)CC[C@@H]1[C@@]24OO3, the IC50 is reported as 90 nM. Work on C[C@H]1[C@@H](NC(=O)COCc2ccc(C(=O)/C=C/c3ccc(F)cc3)cc2)O[C@@H]2O[C@@]3(C)CC[C@H]4[C@H](C)CC[C@@H]1[C@@]24OO3 yielded an IC50 of 90 nM. C[C@H]1[C@H](NC(=O)COCc2ccc(C(=O)/C=C/c3cccc(OC(F)(F)F)c3)cc2)O[C@@H]2O[C@@]3(C)CC[C@H]4[C@H](C)CC[C@@H]1[C@@]24OO3 gave an IC50 of 100 nM. C[C@H]1[C@@H](NC(=O)COCc2ccc(C(=O)/C=C/c3ccc(F)c(F)c3)cc2)O[C@@H]2O[C@@]3(C)CC[C@H]4[C@H](C)CC[C@@H]1[C@@]24OO3 gave an IC50 of 90 nM.

The molecules below were run on NCI-H460 (assay: Antiproliferative activity against human NCI-H460 cells assessed as reduction in cell viability measured for 72 hrs by MTT assay). Details: NCI-H460, 72 h.
Format: functional, cell-based
With C[C@H]1[C@H](NC(=O)COCc2ccc(C(=O)/C=C/c3ccc(S(C)(=O)=O)cc3)cc2)O[C@@H]2O[C@@]3(C)CC[C@H]4[C@H](C)CC[C@@H]1[C@@]24OO3 the IC50 was 100 nM. Work on C[C@H]1[C@@H](NC(=O)COCc2ccc(/C=C/C(=O)c3ccc(F)cc3)cc2)O[C@@H]2O[C@@]3(C)CC[C@H]4[C@H](C)CC[C@@H]1[C@@]24OO3 yielded an IC50 of 1700 nM. C[C@H]1[C@@H](NC(=O)COCc2ccc(C(=O)/C=C/c3ccccc3F)cc2)O[C@@H]2O[C@@]3(C)CC[C@H]4[C@H](C)CC[C@@H]1[C@@]24OO3 showed an IC50 of 90 nM. C[C@H]1[C@@H](NC(=O)COCc2ccc(C(=O)/C=C/c3cccc(Cl)c3Cl)cc2)O[C@@H]2O[C@@]3(C)CC[C@H]4[C@H](C)CC[C@@H]1[C@@]24OO3 was tested, and the IC50 was 90 nM. C[C@H]1[C@@H](NC(=O)COCc2ccc(C(=O)/C=C/c3ccc(F)cc3F)cc2)O[C@@H]2O[C@@]3(C)CC[C@H]4[C@H](C)CC[C@@H]1[C@@]24OO3 gave an IC50 of 90 nM. C[C@H]1[C@@H](NC(=O)COCc2ccc(C(=O)/C=C/c3ccc(F)cc3)cc2)O[C@@H]2O[C@@]3(C)CC[C@H]4[C@H](C)CC[C@@H]1[C@@]24OO3 showed an IC50 of 90 nM. For C[C@H]1[C@H](NC(=O)COCc2ccc(C(=O)/C=C/c3cccc(OC(F)(F)F)c3)cc2)O[C@@H]2O[C@@]3(C)CC[C@H]4[C@H](C)CC[C@@H]1[C@@]24OO3, the IC50 was 100 nM. C[C@H]1[C@@H](NC(=O)COCc2ccc(C(=O)/C=C/c3ccc(F)c(F)c3)cc2)O[C@@H]2O[C@@]3(C)CC[C@H]4[C@H](C)CC[C@@H]1[C@@]24OO3 showed an IC50 of 90 nM.

These molecules were tested on HeLa (assay: Antiproliferative activity against human HeLa cells assessed as reduction in cell viability measured for 72 hrs by MTT assay). Details: not given.
Format: functional, cell-based
In the case of C[C@H]1[C@H](NC(=O)COCc2ccc(C(=O)/C=C/c3ccc(S(C)(=O)=O)cc3)cc2)O[C@@H]2O[C@@]3(C)CC[C@H]4[C@H](C)CC[C@@H]1[C@@]24OO3, the IC50 is reported as 100 nM. For C[C@H]1[C@@H](NC(=O)COCc2ccc(/C=C/C(=O)c3ccc(F)cc3)cc2)O[C@@H]2O[C@@]3(C)CC[C@H]4[C@H](C)CC[C@@H]1[C@@]24OO3, the IC50 was 1700 nM. C[C@H]1[C@@H](NC(=O)COCc2ccc(C(=O)/C=C/c3ccccc3F)cc2)O[C@@H]2O[C@@]3(C)CC[C@H]4[C@H](C)CC[C@@H]1[C@@]24OO3 showed an IC50 of 90 nM. C[C@H]1[C@@H](NC(=O)COCc2ccc(C(=O)/C=C/c3cccc(Cl)c3Cl)cc2)O[C@@H]2O[C@@]3(C)CC[C@H]4[C@H](C)CC[C@@H]1[C@@]24OO3 was tested, and the IC50 was 90 nM. C[C@H]1[C@@H](NC(=O)COCc2ccc(C(=O)/C=C/c3ccc(F)cc3F)cc2)O[C@@H]2O[C@@]3(C)CC[C@H]4[C@H](C)CC[C@@H]1[C@@]24OO3 was tested, and the IC50 was 90 nM. C[C@H]1[C@@H](NC(=O)COCc2ccc(C(=O)/C=C/c3ccc(F)cc3)cc2)O[C@@H]2O[C@@]3(C)CC[C@H]4[C@H](C)CC[C@@H]1[C@@]24OO3 showed an IC50 of 90 nM. Molecule C[C@H]1[C@H](NC(=O)COCc2ccc(C(=O)/C=C/c3cccc(OC(F)(F)F)c3)cc2)O[C@@H]2O[C@@]3(C)CC[C@H]4[C@H](C)CC[C@@H]1[C@@]24OO3 has an IC50 of 100 nM. C[C@H]1[C@@H](NC(=O)COCc2ccc(C(=O)/C=C/c3ccc(F)c(F)c3)cc2)O[C@@H]2O[C@@]3(C)CC[C@H]4[C@H](C)CC[C@@H]1[C@@]24OO3 showed an IC50 of 90 nM.

These molecules were tested on HT-29 (assay: Antiproliferative activity against human HT-29 cells assessed as reduction in cell viability measured for 72 hrs by MTT assay). Details: HT-29, 72 h.
Format: functional, cell-based
With C[C@H]1[C@H](NC(=O)COCc2ccc(C(=O)/C=C/c3ccc(S(C)(=O)=O)cc3)cc2)O[C@@H]2O[C@@]3(C)CC[C@H]4[C@H](C)CC[C@@H]1[C@@]24OO3 the IC50 was 100 nM. Work on C[C@H]1[C@@H](NC(=O)COCc2ccc(/C=C/C(=O)c3ccc(F)cc3)cc2)O[C@@H]2O[C@@]3(C)CC[C@H]4[C@H](C)CC[C@@H]1[C@@]24OO3 yielded an IC50 of 1700 nM. C[C@H]1[C@@H](NC(=O)COCc2ccc(C(=O)/C=C/c3ccccc3F)cc2)O[C@@H]2O[C@@]3(C)CC[C@H]4[C@H](C)CC[C@@H]1[C@@]24OO3 was tested, and the IC50 was 90 nM. With C[C@H]1[C@@H](NC(=O)COCc2ccc(C(=O)/C=C/c3cccc(Cl)c3Cl)cc2)O[C@@H]2O[C@@]3(C)CC[C@H]4[C@H](C)CC[C@@H]1[C@@]24OO3 the IC50 was 90 nM. C[C@H]1[C@@H](NC(=O)COCc2ccc(C(=O)/C=C/c3ccc(F)cc3F)cc2)O[C@@H]2O[C@@]3(C)CC[C@H]4[C@H](C)CC[C@@H]1[C@@]24OO3 showed an IC50 of 90 nM. Work on C[C@H]1[C@@H](NC(=O)COCc2ccc(C(=O)/C=C/c3ccc(F)cc3)cc2)O[C@@H]2O[C@@]3(C)CC[C@H]4[C@H](C)CC[C@@H]1[C@@]24OO3 yielded an IC50 of 90 nM. C[C@H]1[C@H](NC(=O)COCc2ccc(C(=O)/C=C/c3cccc(OC(F)(F)F)c3)cc2)O[C@@H]2O[C@@]3(C)CC[C@H]4[C@H](C)CC[C@@H]1[C@@]24OO3 was tested, and the IC50 was 100 nM. C[C@H]1[C@@H](NC(=O)COCc2ccc(C(=O)/C=C/c3ccc(F)c(F)c3)cc2)O[C@@H]2O[C@@]3(C)CC[C@H]4[C@H](C)CC[C@@H]1[C@@]24OO3 showed an IC50 of 90 nM.
